In patent US20220143086A1, “METHOD OF HOMING AND RETENTION OF GAMMADELTA T CELLS, OPTIONALLY WITH NATURAL KILLER CELLS, FOR GENERATING CELL COMPOSITIONS FOR USE IN THERAPY” (Gamida Cell Ltd., priority 2019, published 2022):
“Also recorded” adds a separate entry of the source.

Legend:
[1] = system: gammadelta T cells; assay: CD62L expression in expanded gammadelta T-cells (FACS); assay type: cell-based, human
Experimental: (§1) Healthy donor blood units samples were depleted of TCR alphabeta-expressing T-cells using midiMACS™ columns and TCRα/β Kit (Miltenyi Biotec, Gaithersberg, Md.). Alphabeta-T-cell depleted populations were cultured for 12-13 days in VueLife® (Saint-Gobain, Gaithersburg, Md.) bags with medium supplemented with 0 (control) or 5 mM nicotinamide (NAM) and 50 ng/ml IL-2.
Purified gamma-delta T-cells from NAM-treated and control (−NAM) cultures were stained for CD62L (L-selectin) and analyzed by FACS, using anti-CD62L antibodies.

[2] = system: gammadelta T cells; assay: Transplantation and in-vivo homing and retention of expanded gammadelta T-cells in irradiated NSG mice; details: for in-vivo homing and tissue retention of gammadelta cells: cells expanded with 5 mM NAM, CFSE-labeled, i.v. into irradiated NSG mice, 4 days, all tissues analyzed
Experimental: as §1
CD3+/gammadelta+ cells were purified from culture, as described above, and then marked with CFSE (Invitrogen, Thermo-Fisher, Carlsbad, Calif.). NSG SCID mice were irradiated at 350cGy. The next day following irradiation, 5-6×10^6 CFSE-labeled CD3+/gammdelta-positive cells per mouse from NAM and control (−NAM) cultures were injected intravenously into the mice.
Mice were sacrificed 4 days after cell infusion, and organs excised. Fractions of CFSE stained cells were evaluated by FACS of organ cell suspensions.

[3] = system: alphabeta-depleted peripheral blood cells; assay: T-cell receptor characterization by FACS of CD3+ cells from cultured alphabeta-depleted blood cells; assay type: cell-based, human; details: 5 mM nicotinamide
Experimental: as §1
To characterize T cell receptor (TCR) expressed on CD3+ cells in culture, CD3 positive cells were purified with CliniMACS™ CD3 reagent (Miltenyi, 273-01, Gaithersburg, Md.) followed by FACS analysis of the percentages of CD3+/γδ+ and CD3+/α/β+ cells. FACS staining and analysis was performed according to standard procedures employing cell surface-specific antibodies.

[4] = cells cultured with 5 mM NAM, 4 days after infusion, irradiated NSG mice

SMILES: NC(=O)c1cccnc1 [NAM, nicotinamide]
- CD62L expression (in words) ([1]; 5 mM NAM versus identical cells cultured without NAM): striking enhancement
- increase in CD62L expression ([1]; 5 mM nicotinamide, 12-13 days culture, versus culture without NAM): ~3 fold
- gammadelta T-cells retained in blood and lung tissue [2, 4]: nearly three-fold increase
- gammadelta T-cells retained in lymphoid tissue (spleen, bone marrow) [2, 4]: powerful enhancement
- in-vivo homing and tissue retention of gammadelta cells [2]: enhanced incidence of homing and retention; also recorded: striking effect
- in-vivo homing and tissue retention of gammadelta cells ([2]; listed as nicotinamide): greater homing and tissue retention
- gammadelta T cells in CD3+ T-cell fraction ([3]; 50 ng/ml IL-2, 12-13 days culture, CD3+ selected, FACS): greater than 90%
- effect on expansion of the gammadelta positive component of cultured T-cell populations ([3]; 12-13 days culture): does not seem to affect
